# Measured values published in patent US9034848B2, “Phenyl carbamate compounds for use in preventing or treating stroke” (Bio-Pharm Solutions Co., Ltd., priority 2011, dated 2015).
# Experiments:
# Assay type in all cases: in vivo
# SD rats [1] = assay: Permanent middle cerebral artery occlusion (pMCAO) model, TTC-stained infarct area; conditions: 60 mg/kg i.p. b.i.d.; for infraction areas compared with control (neuro-therapeutic): 1st inj. 0.25 hr after occlusion, 8 hr interval, occlusion 1, 3, 7 days
# SD rats [2] = assay: Transient middle cerebral artery occlusion (tMCAO) model, TTC-stained infarct area; conditions: 2 hr occlusion, 24 hr reperfusion; for infraction areas compared with control (neuro-therapeutic): 60 mg/kg i.p. 15 minutes after occlusion; for infraction areas compared with control (neuro-prevention): 60 mg/kg i.p. 15 minutes before occlusion
# Description: 1.1. Neuro-Prevention Study of Transient MCAO (tMCAO) Model
# Male, SD rats weighing 290-300 g were purchased from Nara Bio Tech. (Pyoung-tek, Korea) Animals were maintained with laboratory animal food and water ad libitum in an animal facility with a 12 h light/dark cycle at a controlled temperature (23±2° C.) until used. All animal experiments were carried out in accordance with the Korean Academy of Medical Sciences Guide for Care and Use of Laboratory Animals.
# The rats were anesthetized with isoflurane (Hana-phram., Korea) and anesthesia machine was set to 1.0 L/min N2O (Surgi-Vet, USA). Isoflurane and N2O gas ratio was 3:3 for induction anesthesia, and lower to 2:1 (isoflurane:N2O) to maintain anesthesia. Body temperature was monitored continuously by a rectal thermo meter probe and maintained at 37±0.5° C. by placing the animals on a heating pad (Jung-do B&P, Korea). The MCA (middle cerebral artery) occlusion was induced by the procedure of Longa et al. (1989) with minor modifications. Briefly, surgical nylon suture thread (4-0, Diameter: 0.39 mm, Coating length: 0.56 mm, Doccol suture, USA) with a round tip was advanced from the external carotid artery (ECA) into the lumen of the internal carotid artery (ICA) to occlude the origin of the MCA. The wound was closed, and the animals were allowed to home cage for recover.
# Priority, the infraction areas when the compound of Example 1 was treated at various time points were measured for peak time when is the best efficacy time (see FIG. 1). And then, rats received 60 mg/kg dose of each compound of Examples 1, 65 and 67, intraperitoneally (i.p.) at 15 minutes before MCA occlusion (see FIG. 2, animal numbers of each compound of Examples 1 (n=8), 65 (n=5) and 67 (n=6)). All compounds were dissolved in 30% polyethylene glycol (Compound of Example 1) or 20% (w/v) Tween 80 (Compounds of Examples 65 and 67) once in volume of 4 ul/g bw. Control group (n=33) was identical to those in the MCA occlusion rats except for injection of vehicle (4 ul/g bw of 30% (w/v) polyethylene glycol or 20% (w/v) Tween 80, intraperitoneally (i.p.)). Two hours after MCA occlusion, reperfusion was accomplished by pulling the suture thread back to the bifurcation until the tip cleared the ICA.
# The experimentation was identical performed as described in Experimental Example 1.1, except that each compound examples of 1, 65 and 67 was administered at 15 minutes after MCA occlusion (FIG. 3, animal numbers of each compound of Examples 1 (n=7), 65 (n=6) and 67 (n=5)), to test the therapeutic effect of the compounds. Control group (n=33) was identical to those in the MCA occlusion rats except for injection of vehicle (4 ul/g bw of 30% polyethylene glycol or 20% Tween 80, intraperitoneally (i.p.)).
# After 24 hours of reperfusion, rats were anesthetized with isoflurane (Hana-phram., Korea). The brain was then quickly removed and cut into 2-mm thick coronal block slices in brain matrix. The slices were immersed in a 2% (w/v) solution of 2,3,5-triphenyltetrazolium chloride (TTC) in normal saline at 37° C. for 10 min and then fixed in 10% (v/v) formalin solution at room temperature for overnight. The TTC stained brain slices were photographed using a digital camera (5000D, Nikon, Japan). The size of infarct was calculated with an image analysis system (Image-Pro Plus 4.0, Media Cybernetics, USA) and measurement of infarct area were expressed as the percentage (% control) of infarct area in reference to the compared with ipsilateral hemisphere of control group (see FIGS. 2 and 3).
# Statistical analysis results are presented as the mean±S.E.M. and measures analysis of variance was used for comparison of the results of hemispheric infarct area, obtained from 5˜33 rats in each group. Data were analyzed by either one-way analysis of variance (ANOVA) followed by Tukey's test for multiple comparisons. p values less than 0.05 were considered to be statistically significant (see FIGS. 1 and 4).
# mice = assay: MES test (anti-excitotoxicity activity); conditions: Mus musculus, po, 4 mice, read-out: MES test(po) Protection %; for responders at 100 mg/kg: injection amount 100 mg/kg
Compound,infraction areas compared with control (neuro-therapeutic) (SD rats [1]),infraction areas compared with control (neuro-therapeutic) (SD rats [2]),infraction areas compared with control (neuro-prevention) (SD rats [2]),responders at 100 mg/kg (mice) [%],other results
"C[C@H](OC(N)=O)[C@@H](O)c1ccccc1Cl [Compound 1, 1-(2-chlorophenyl)-(S)-1-hydroxypropyl-(S)-2-carbamate]",significantly reduced,significantly reduced,significantly reduced,,"neuro-therapeutic effect, TTC-stained infarction area (SD rats [1]; 1st inj. 1 hr after occlusion, occlusion for 3 days): neuro-therapeutic effect"
"CCCC[C@H](OC(N)=O)[C@@H](O)c1ccccc1Cl [Compound 12, 1-(2-chlorophenyl)-(S)-1-hydroxyhexyl-(S)-2-carbamate]",,,,75,
"CCCC[C@@H](OC(N)=O)[C@H](O)c1ccccc1Cl [Compound 13, 1-(2-chlorophenyl)-(R)-1-hydroxyhexyl-(R)-2-carbamate]",,,,,responders at 200 mg/kg (mice; injection amount 200 mg/kg): 75%
"CCCC[C@H](OC(N)=O)[C@@H](O)c1ccc(Cl)cc1Cl [Compound 43, 1-(2,4-dichlorophenyl)-(S)-1-hydroxyhexyl-(S)-2-carbamate]",,,,25,
"CCCC[C@H](OC(N)=O)[C@@H](O)c1c(Cl)cccc1Cl [Compound 44, 1-(2,6-dichlorophenyl)-(S)-1-hydroxyhexyl-(S)-2-carbamate]",,,,75,
"C[C@H](OC(N)=O)[C@@H](O)c1ccccc1I [Compound 65, 1-(2-iodophenyl)-(S)-1-hydroxypropyl-(S)-2-carbamate]",neuro-therapeutic effects,significantly reduced,significantly reduced,,responders at 50 mg/kg (mice; injection amount 50 mg/kg): 100%
"CC[C@H](OC(N)=O)[C@@H](O)c1ccccc1I [Compound 67, 1-(2-iodophenyl)-(S)-1-hydroxybutyl-(S)-2-carbamate]",neuro-therapeutic effects,significantly reduced,significantly reduced,100,
